Results: patent US11459315B2, “Modulators of methyl modifying enzymes, compositions and uses thereof” (Constellation Pharmaceuticals, Inc., priority 2017, dated 2022)
Read-outs that look alike come from different tables or passages of the source.

What was measured:
PRC2 containing wt EZH2 = PRC2 containing wt EZH2 (Homo sapiens (Human), UniProt Q15910); assay: EZH2 biochemical assay (IC50), 3H-SAM incorporation into biotinylated H3 peptide
Description: EZH2 biochemical assay (IC50): Compound potencies were assessed through incorporation of ^3H-SAM into a biotinylated H3 peptide. Specifically, 30 pM PRC2 containing wt EZH2 (pentameric complex prepared in-house) was pre-incubated with 450 nM SAM, 450 nM ^3H-SAM, 2 μM H3K27me3 activating peptide (H2N-[…](Kme3)[…]-amide) and compounds (as 10 point duplicate dose response titrations in DMSO, final assay 0.8% DMSO (v/v)) for 3-5 h in 50 mM Tris (pH 8.5), 1 mM DTT, 0.07 mM Brij-35, 0.1% BSA, and 0.8% DMSO in a total volume of 12.5 μl. Reaction was initiated with biotinylated H3 substrate peptide (H2N-[…](Kme1)[…]-NTPEGBiot) as a 2 μM stock in 12.5 μl of buffer and allowed to react at room temperature for 18-22 h. Quenching was accomplished by addition of 20 μl of STOP solution (50 mM Tris (pH 8.5), 200 mM EDTA, 2 mM SAH). 35 μl of the quenched solution was transferred to streptavidin coated FlashPlates (PerkinElmer), incubated 1-2 h, washed, and read in a TopCount Reader (PerkinElmer). IC50s were calculated in Genedata Screener using non-linear least square four parameter fits, where the four parameters were IC50, Hill slope, pre-transitional baseline (0% INH), and post-transitional baseline (100% INH).
IC50 values are reported as follows: “A” indicates an IC50 value of less than 0.5 nM; “B” indicates an IC50 value of 0.5 nM to 5 nM; “C” indicates an IC50 value of greater than 5 nM for each enzyme; and “ND” is not determined.

[1] = system: H3K27me3 mark in HeLa cells (EZH2); assay: H3K27me3 Alpha Hela Assay (AlphaLISA); type: cell-based; conditions: HeLa cells, 72 hrs, read-out: EZH2 Cell H3K27me3 Alpha HeLa (EC50 K27me3)
Description: H3K27me3 Alpha Hela Assay (AlphaLISA). Ten different doses of each test compound (in a series of 3-fold dilutions) were plated in duplicate 384-well tissue culture treated plates (Catalog #6007680; Perkin Elmer, Waltham, Mass.). Hela cells grown in culture were trypsinized and counted using a Countess® cell counter (Catalog #C10281; Life Technologies, Grand Island, N.Y.). Cell were diluted to 67,000 cells per mL in 10% DMEM (Catalog #10569-010 Life Technologies, Grand Island, N.Y.) and 15 μL (1,000 cells) were plated into each well using the Biotek MicroFlo™ Select Dispenser (BioTek Instruments, Inc. Vermont, USA),) of the 384-well plate. Plates were incubated at 37° C./5% CO2 for 72 hrs. One of the duplicate plates was processed for HeLa assay and the other for viability.
5 μL of Cell-Histone Lysis buffer (1×) (Catalog #AL009F1 Perkin Elmer; Waltham, Mass.) per well was added to the plate processed for AlphaLISA and the plate was incubated at RT for 30 minutes on a plate shaker with low speed (Model #4625-Q Thermo Scientific; Waltham, Mass.). Then, 10 μL per well Histone Extraction buffer (catalog #AL009F2; Perkin Elmer; Waltham, Mass.) was added and the plate further incubated at RT for 20 min on plate shaker with low speed. Next, 10 μL of 5× mix of anti-K27me3 acceptor beads plus Biotinylated anti-Histone H3 (C-ter) Antibody (diluted to 3 nM final) (Catalog #AL118 Perkin Elmer; Waltham, Mass.) was added in each well. Dilution of the acceptor beads and anti-Histone H3 was done in 1× Histone Detection buffer (Catalog #AL009F3 Perkin Elmer; Waltham, Mass.) which was produced by diluting the 10× stock provided. The plate was sealed with an aluminum plate sealer and incubated at 23° C. for 60 min. Next, 10 μL 5× solution of Streptavidin Donor beads were added (Catalog #6760002 Perkin Elmer; Waltham, Mass.) (20 μg/mL final in 1× Histone Detection Buffer), =plate was sealed with Aluminum plate sealer and incubated at 23° C. for 30 min. The plates were then read using an EnVision-Alpha Reader (model #2104 Perkin Elmer; Waltham, Mass.).
Data from both assays was analyzed using Genedata (Basel, Switzerland). Data files were imported to Genedata and assay conditions were specified. A unique Analysis ID was created and the data files analysed to measure dose-dependent inhibition of H3K27me3 mark and cell viability respectively. Readout of DMSO wells were used to normalize the data. Resulting curves were fitted using Smart fit application (Genedata; Basel, Switzerland). The data was checked for quality, validated and integrated in excel format using Stardrop (Optibruim, Cambridge, UK).
EC50 values are reported as follows: “A” indicates an EC50 value of less than 10 nM; “B” indicates an EC50 value of 10 nM to 100 nM; “C” indicates an EC50 value of greater than 100 nM; and “ND” is not determined.

[2] = EZH2 (IC50), 30 pM PRC2 containing wt EZH2; 3-5 h pre-incubation
[3] = 30 pM PRC2 containing wt EZH2; 3-5 h pre-incubation; read-out: EZH2 (IC50)
[4] = read-out: EZH2 (IC50); 30 pM PRC2 containing wt EZH2; 3-5 h pre-incubation

PRC2 containing wt EZH2, sequence (Q15910 whole entry): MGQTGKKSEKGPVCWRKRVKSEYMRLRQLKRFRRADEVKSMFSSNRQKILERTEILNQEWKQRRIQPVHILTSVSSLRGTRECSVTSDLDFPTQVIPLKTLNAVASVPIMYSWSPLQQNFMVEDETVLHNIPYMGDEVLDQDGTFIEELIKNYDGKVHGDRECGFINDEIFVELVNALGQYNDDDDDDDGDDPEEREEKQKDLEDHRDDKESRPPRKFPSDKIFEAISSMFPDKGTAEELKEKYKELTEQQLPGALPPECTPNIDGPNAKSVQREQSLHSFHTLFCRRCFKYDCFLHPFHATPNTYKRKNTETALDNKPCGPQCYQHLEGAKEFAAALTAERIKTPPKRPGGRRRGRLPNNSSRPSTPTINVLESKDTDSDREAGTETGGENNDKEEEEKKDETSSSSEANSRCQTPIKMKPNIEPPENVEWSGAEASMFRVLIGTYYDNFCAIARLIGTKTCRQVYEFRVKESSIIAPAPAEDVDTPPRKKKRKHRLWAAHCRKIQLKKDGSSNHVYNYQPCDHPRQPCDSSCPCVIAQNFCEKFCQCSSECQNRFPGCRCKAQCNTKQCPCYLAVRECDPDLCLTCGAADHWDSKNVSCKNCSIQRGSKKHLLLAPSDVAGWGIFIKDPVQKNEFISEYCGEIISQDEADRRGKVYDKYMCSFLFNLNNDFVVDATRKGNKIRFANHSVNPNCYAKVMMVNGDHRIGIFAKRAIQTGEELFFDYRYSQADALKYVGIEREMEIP
PRC2 containing wt EZH2, sequence (O75530 whole entry partner): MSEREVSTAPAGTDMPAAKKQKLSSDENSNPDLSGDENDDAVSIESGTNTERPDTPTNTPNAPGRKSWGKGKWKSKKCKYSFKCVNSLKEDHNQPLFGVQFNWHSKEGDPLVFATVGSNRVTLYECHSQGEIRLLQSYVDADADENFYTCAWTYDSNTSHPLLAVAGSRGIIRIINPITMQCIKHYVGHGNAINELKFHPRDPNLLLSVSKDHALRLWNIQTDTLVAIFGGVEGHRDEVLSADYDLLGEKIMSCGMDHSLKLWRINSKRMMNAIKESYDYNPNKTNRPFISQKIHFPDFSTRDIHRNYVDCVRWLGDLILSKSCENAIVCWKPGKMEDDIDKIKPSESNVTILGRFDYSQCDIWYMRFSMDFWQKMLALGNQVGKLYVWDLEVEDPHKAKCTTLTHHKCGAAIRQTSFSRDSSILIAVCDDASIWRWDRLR
PRC2 containing wt EZH2, sequence (Q15022 whole entry partner): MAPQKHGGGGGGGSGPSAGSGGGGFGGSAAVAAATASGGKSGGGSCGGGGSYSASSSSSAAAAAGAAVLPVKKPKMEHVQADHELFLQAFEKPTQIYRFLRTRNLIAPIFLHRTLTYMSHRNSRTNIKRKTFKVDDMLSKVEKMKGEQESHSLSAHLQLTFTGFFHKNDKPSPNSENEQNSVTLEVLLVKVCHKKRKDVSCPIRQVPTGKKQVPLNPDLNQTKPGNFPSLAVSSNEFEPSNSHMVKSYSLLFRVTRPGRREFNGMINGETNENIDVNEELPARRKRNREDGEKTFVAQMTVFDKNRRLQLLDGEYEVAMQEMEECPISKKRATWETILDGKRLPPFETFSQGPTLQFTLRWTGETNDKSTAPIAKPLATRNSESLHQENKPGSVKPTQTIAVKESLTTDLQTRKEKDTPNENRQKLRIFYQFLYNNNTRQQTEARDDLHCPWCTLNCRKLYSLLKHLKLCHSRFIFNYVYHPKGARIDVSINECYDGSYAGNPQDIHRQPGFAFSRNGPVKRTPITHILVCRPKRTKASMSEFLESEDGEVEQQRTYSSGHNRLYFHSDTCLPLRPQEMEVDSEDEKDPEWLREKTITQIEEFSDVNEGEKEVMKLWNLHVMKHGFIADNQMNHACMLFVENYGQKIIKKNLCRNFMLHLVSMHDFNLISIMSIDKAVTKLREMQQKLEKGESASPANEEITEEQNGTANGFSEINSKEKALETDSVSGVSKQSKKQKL
PRC2 containing wt EZH2, sequence (Q09028 whole entry partner): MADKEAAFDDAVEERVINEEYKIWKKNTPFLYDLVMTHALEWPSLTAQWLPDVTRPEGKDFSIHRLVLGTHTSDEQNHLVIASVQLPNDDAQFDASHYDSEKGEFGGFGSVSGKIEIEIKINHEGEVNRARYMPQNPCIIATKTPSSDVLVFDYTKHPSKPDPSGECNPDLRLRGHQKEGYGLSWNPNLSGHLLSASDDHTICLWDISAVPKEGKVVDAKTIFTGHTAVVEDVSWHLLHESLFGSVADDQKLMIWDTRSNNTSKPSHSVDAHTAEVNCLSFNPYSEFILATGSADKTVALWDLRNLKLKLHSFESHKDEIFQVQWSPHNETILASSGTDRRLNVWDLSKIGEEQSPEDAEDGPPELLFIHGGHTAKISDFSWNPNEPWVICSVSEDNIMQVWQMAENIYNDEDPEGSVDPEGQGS
PRC2 containing wt EZH2, sequence (Q6ZN18 whole entry partner): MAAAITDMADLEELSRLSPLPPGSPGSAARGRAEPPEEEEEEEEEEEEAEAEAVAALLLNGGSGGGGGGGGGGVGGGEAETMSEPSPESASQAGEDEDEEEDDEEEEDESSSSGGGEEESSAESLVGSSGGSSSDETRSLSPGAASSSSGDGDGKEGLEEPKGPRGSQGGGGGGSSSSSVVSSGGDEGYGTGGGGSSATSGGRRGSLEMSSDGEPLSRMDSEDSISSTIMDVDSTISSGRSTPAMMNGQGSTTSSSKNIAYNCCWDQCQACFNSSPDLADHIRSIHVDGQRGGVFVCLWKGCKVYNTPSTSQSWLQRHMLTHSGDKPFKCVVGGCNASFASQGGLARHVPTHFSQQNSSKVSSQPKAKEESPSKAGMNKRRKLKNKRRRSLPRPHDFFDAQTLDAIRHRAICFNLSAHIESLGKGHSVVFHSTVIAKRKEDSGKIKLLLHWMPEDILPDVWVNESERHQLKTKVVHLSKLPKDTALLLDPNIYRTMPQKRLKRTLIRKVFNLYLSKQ

| SMILES | IC50 (PRC2 containing wt EZH2; [2]) [nM] | EC50 ([1]; Homo sapiens, HeLa, 72 h) [nM] | IC50 (PRC2 containing wt EZH2; [3]) [nM] | EC50 [1] [nM] | IC50 (PRC2 containing wt EZH2; [4]) [nM] |
| --- | --- | --- | --- | --- | --- |
| CSc1cc(C)[nH]c(=O)c1CNC(=O)c1c(C)n([C@H](C)C2CCC(F)(F)CC2)c2ccccc12 [Example 45, (R)-1-(1-(4,4-difluorocyclohexyl)ethyl)-2-methyl-N-((6-methyl-4-(methylthio)-2-oxo-1,2-dihydropyridin-3-yl)methyl)-1H-indole-3-carboxamide] | < 0.5 | < 10 | – | – | – |
| CCCC(=O)OC1CCC([C@@H](C)n2c(C)c(C(=O)NCc3c(SC)cc(C)[nH]c3=O)c3ccccc32)CC1 (single isomer, unassigned) [143 (isomer 2)] | – | – | < 0.5 | < 10 | – |
| CSc1cc(C)[nH]c(=O)c1CNC(=O)c1c(C)n([C@H](C)C2CCC(N3CCOCC3)CC2)c2ccccc12 (single isomer, unassigned) [75 (isomer 2)] | – | – | – | 10 to 100 | < 0.5 |
| CSc1cc(C)[nH]c(=O)c1CNC(=O)c1c(C)n([C@H](C)C2CCC(N3CC(n4ccnn4)C3)CC2)c2ccccc12 (stereo partly drawn) [Example 160, 1-((R)-1-(4-(3-(1H-1,2,3-triazol-1-yl)azetidin-1-yl)cyclohexyl)ethyl)-2-methyl-N-((6-methyl-4-(methylthio)-2-oxo-1,2-dihydropyridin-3-yl)methyl)-1H-indole-3-carboxamide] | – | < 10 | < 0.5 | – | – |
| CSc1cc(C)[nH]c(=O)c1CNC(=O)c1c(C)n([C@H](C)C2CCN(CCC(F)(F)F)CC2)c2ccccc12 [Example 88, (R)-2-methyl-N-((6-methyl-4-(methylthio)-2-oxo-1,2-dihydropyridin-3-yl)methyl)-1-(1-(1-(3,3,3-trifluoropropyl)piperidin-4-yl)ethyl)-1H-indole-3-carboxamide] | < 0.5 | 10 to 100 | – | – | – |
| CSc1cc(C)[nH]c(=O)c1CNC(=O)c1c(C)n([C@H](C)C2CCC(N3CC34COC4)CC2)c2ncccc12 (single isomer, unassigned) [139 (isomer 1)] | < 0.5 | 10 to 100 | – | – | – |
| COC1CN(C2CCC([C@@H](C)n3c(C)c(C(=O)NCc4c(SC)cc(C)[nH]c4=O)c4cccnc43)CC2)C1 (single isomer, unassigned) [76 (isomer 2)] | 0.5 to 5 | – | – | > 100 | – |
| CSc1cc(C)[nH]c(=O)c1CNC(=O)c1c(C)n([C@H](C)C2CCN(C3CC(F)(F)C3)CC2)c2ccccc12 [Example 81, (R)-1-(1-(1-(3,3-difluorocyclobutyl)piperidin-4-yl)ethyl)-2-methyl-N-((6-methyl-4-(methylthio)-2-oxo-1,2-dihydropyridin-3-yl)methyl)-1H-indole-3-carboxamide] | < 0.5 | 10 to 100 | – | – | – |
| CSc1cc(C)[nH]c(=O)c1CNC(=O)c1c(C)n([C@H](C)C2CCC(OC3CN(C)C3)CC2)c2ncccc12 (single isomer, unassigned) [145 (isomer 2)] | < 0.5 | – | – | > 100 | – |
| CSc1cc(C)[nH]c(=O)c1CNC(=O)c1c(C)n([C@H](C)C2CCC(NC3(CF)COC3)CC2)c2ncncc12 (single isomer, unassigned) [156 (isomer 2)] | – | – | < 0.5 | 10 to 100 | – |
| CSc1cc(C)[nH]c(=O)c1CNC(=O)c1c(C)n([C@H](C)C2CCC(N3CC(OC(F)F)C3)CC2)c2ccccc12 (single isomer, unassigned) [20 (isomer 1)] | – | < 10 | < 0.5 | – | – |
| CSc1cc(C)[nH]c(=O)c1CNC(=O)c1c(C)n([C@H](C)C2CCC(N3CC(OC4CC4)C3)CC2)c2c(F)cccc12 (single isomer, unassigned) [113 (isomer 1)] | – | < 10 | < 0.5 | – | – |
| CSc1cc(C)[nH]c(=O)c1CNC(=O)c1c(C)n([C@H](C)C2CCC(N3CCOC3=O)CC2)c2ccccc12 (stereo partly drawn) [Example 74, 2-methyl-N-((6-methyl-4-(methylthio)-2-oxo-1,2-dihydropyridin-3-yl)methyl)-1-((R)-1-(4-(2-oxooxazolidin-3-yl)cyclohexyl)ethyl)-1H-indole-3-carboxamide] | – | 10 to 100 | < 0.5 | – | – |
| CSc1cc(C)[nH]c(=O)c1CNC(=O)c1c(C)n([C@H](C)C2CCN(C3CC(F)C3)CC2)c2ccccc12 (single isomer, unassigned) [64 (isomer 2)] | – | – | – | 10 to 100 | < 0.5 |
| CSc1cc(C)[nH]c(=O)c1CNC(=O)c1c(C)n([C@H](C)C2CCC(N3CC(N(C)C)C3)CC2)c2ccccc12 (single isomer, unassigned) [148 (isomer 1)] | – | 10 to 100 | < 0.5 | – | – |
| CSc1cc(C)[nH]c(=O)c1CNC(=O)c1c(C)n([C@H](C)C2CCC(N3CC[C@@H](OC(F)F)C3)CC2)c2ncccc12 (stereo partly drawn) [Example 119, 1-((R)-1-(4-((R)-3-(difluoromethoxy)pyrrolidin-1-yl)cyclohexyl)ethyl)-2-methyl-N-((6-methyl-4-(methylthio)-2-oxo-1,2-dihydropyridin-3-yl)methyl)-1H-pyrrolo[2,3-b]pyridine-3-carboxamide] | – | < 10 | < 0.5 | – | – |
| CSc1cc(C)[nH]c(=O)c1CNC(=O)c1c(C)n([C@H](C)C2CCC(N3CC(F)C3)CC2)c2ncc(F)cc12 (single isomer, unassigned) [84 (isomer 2)] | – | – | – | 10 to 100 | < 0.5 |
| CSc1cc(C)[nH]c(=O)c1CNC(=O)c1c(C)n([C@H](C)C2CCC(N3CC(F)C3)CC2)c2c(F)cccc12 (stereo partly drawn) [Example 82, 7-fluoro-1-((R)-1-(4-(3-fluoroazetidin-1-yl)cyclohexyl)ethyl)-2-methyl-N-((6-methyl-4-(methylthio)-2-oxo-1,2-dihydropyridin-3-yl)methyl)-1H-indole-3-carboxamide] | < 0.5 | < 10 | – | – | – |
| CSc1cc(C)[nH]c(=O)c1CNC(=O)c1c(C)n([C@H](C)c2ccc(N(C)C)cc2)c2ccccc12 [Example 46, (R)-1-(1-(4-(dimethylamino)phenyl)ethyl)-2-methyl-N-((6-methyl-4-(methylthio)-2-oxo-1,2-dihydropyridin-3-yl)methyl)-1H-indole-3-carboxamide] | < 0.5 | 10 to 100 | – | – | – |
| CSc1cc(C)[nH]c(=O)c1CNC(=O)c1c(C)n([C@H](C)C2CCC(N3CC(F)C3)CC2)c2ncccc12 (stereo partly drawn) [Example 65, 1-((R)-1-(4-(3-fluoroazetidin-1-yl)cyclohexyl)ethyl)-2-methyl-N-((6-methyl-4-(methylthio)-2-oxo-1,2-dihydropyridin-3-yl)methyl)-1H-pyrrolo[2,3-b]pyridine-3-carboxamide] | < 0.5 | < 10 | – | – | – |
| CSc1cc(C)[nH]c(=O)c1CNC(=O)c1c(C)n([C@H](C)C2CCC(N3CC(S(C)(=O)=O)C3)CC2)c2ccccc12 (single isomer, unassigned) [162 (isomer 1)] | – | – | < 0.5 | 10 to 100 | – |
